Assay results reported in US20090281152A1, “Indole Compounds Having Affinity to the EP1 Receptor” (priority 2006, published 2009).

Assays:
human EP3 receptor = target: T1, human EP3 receptor (Homo sapiens, UniProt P43115); assay: human EP3 calcium mobilisation assay (FLIPR, CHO-K1 cells); assay type: cell-based; settings: antagonism of PGE2-induced calcium mobilisation, averages of a number of experiments, read-out: functional pKi (converted)
T1 construct: expressed in transfected cells; host or cells: CHO-K1 cells, pCIN vector
T1 sequence (P43115 1-390): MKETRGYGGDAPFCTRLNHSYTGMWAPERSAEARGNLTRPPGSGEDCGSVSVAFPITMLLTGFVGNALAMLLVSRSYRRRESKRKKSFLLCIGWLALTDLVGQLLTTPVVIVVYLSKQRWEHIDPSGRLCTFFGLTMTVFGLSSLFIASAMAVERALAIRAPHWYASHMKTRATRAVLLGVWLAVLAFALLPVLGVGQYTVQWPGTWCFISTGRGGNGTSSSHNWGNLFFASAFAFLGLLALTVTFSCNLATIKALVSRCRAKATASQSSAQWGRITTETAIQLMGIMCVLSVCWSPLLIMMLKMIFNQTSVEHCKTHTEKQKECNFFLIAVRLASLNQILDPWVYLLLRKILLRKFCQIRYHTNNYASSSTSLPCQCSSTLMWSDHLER
Procedure: Briefly, the antagonist properties of compounds are assessed by their ability to inhibit the mobilisation of intracellular calcium ([Ca^2+]i) in response to activation of EP1 or EP3 receptors by the natural agonist hormone prostaglandin E2 (PGE2). Increasing concentrations of antagonist reduce the amount of calcium that a given concentration of PGE2 can mobilise. The net effect is to displace the PGE2 concentration-effect curve to higher concentrations of PGE2. The amount of calcium produced is assessed using a calcium-sensitive fluorescent dye such as Fluo-4, AM and a suitable instrument such as a Fluorimetric Imaging Plate Reader (FLIPR). Increasing amounts of [Ca^2+]i produced by receptor activation increase the amount of fluorescence produced by the dye and give rise to an increasing signal. The signal may be detected using the FLIPR instrument and the data generated may be analysed with suitable curve-fitting software.
The human EP1 or EP3 calcium mobilisation assay (hereafter referred to as ‘the calcium assay’) utilises Chinese hamster ovary-K1 (CHO-K1) cells into which a stable (pCIN; BioTechniques 20 (1996): 102-110) vector containing either EP1 or EP3 cDNA has previously been transfected. Cells are cultured in suitable flasks containing culture medium such as DMEM:F-12 supplemented with 10% v/v foetal calf serum, 2 mM L-glutamine, 0.25 mg/ml geneticin, 100 μM flurbiprofen and 10 μg/ml puromycin.
For assay, cells are harvested using a proprietary reagent that dislodges cells such as Versene. Cells are re-suspended in a suitable quantity of fresh culture media for introduction into a 384-well plate. Following incubation for 24 hours at 37° C. the culture media is replaced with a medium containing Fluo-4 and the detergent pluronic acid, and a further incubation takes place. Concentrations of compounds are then added to the plate in order to construct concentration-effect curves. This may be performed on the FLIPR in order to assess the agonist properties of the compounds. […]
The data so generated may be analysed by means of a computerised curve-fitting routine. […]

[1] = tested on: rat model of chronic constriction injury; settings: Anesthesia and Analgesia 2001, 93, 1012-7; cited from earlier work
[2] = tested on: rodent model of post-operative pain; settings: Anesthesia and Analgesia 2001, 92, 233-238; cited from earlier work

| Structure (SMILES) | Ki (human EP3 receptor) | hyperalgesia and allodynia [1] | mechanical hyperalgesia [2] |
| --- | --- | --- | --- |
| CC(C)Cn1cc(-c2nc(C(=O)O)cs2)c2cc(Cl)ccc21 [Example 7, 2-[5-Chloro-1-(2-methylpropyl)-1H-indol-3-yl]-1,3-thiazole-4-carboxylic acid] | ≥ 1 µM |  |  |
| CC(C)Cn1cc(-c2nc(C(=O)O)co2)c2cc(Cl)ccc21 [Example 8, 2-[5-Chloro-1-(2-methylpropyl)-1H-indol-3-yl]-1,3-oxazole-4-carboxylic acid] | ≥ 1 µM |  |  |
| Cc1ccc2c(c1)c(-c1nc(C(=O)NS(=O)(=O)c3ccccc3)co1)cn2CC(C)C [Example 10, 2-[5-Methyl-1-(2-methylpropyl)-1H-indol-3-yl]-N-(phenylsulfonyl)-1,3-oxazole-4-carboxamide] | > 0.316 µM |  |  |
| Cc1cc(Cl)ccc1S(=O)(=O)NC[C@H]1C2CCC(CC2)[C@@H]1/C=C\CCCC(=O)O [ONO-8711] |  | reduces hyperalgesia and allodynia | inhibits mechanical hyperalgesia |
